{"source": "paper PMC9474474", "about": "“Determination of pharmacokinetics and tissue distribution of a novel lutetium-labeled PSMA-targeted ligand, ^177Lu-DOTA-PSMA-GUL, in rats by using LC–MS/MS” (Scientific Reports, 2022)", "experiment": "Stability in rat plasma, urine, feces and 12 tissues (LC–MS/MS validation)", "type": "in vitro ADME", "conditions": "for Stability Autosampler: 4 °C for 24 h; for Stability Long-term: -70 °C for two weeks; for Stability Short-term: room temperature for 4 h; for Stability Freeze-thaw: 4 cycles", "protocol": "Analytical validation data including stability and process efficiency are shown in Supplementary Tables 3 and 4. […] The process efficiency in each biological matrix is generally consistent (Supplementary Table 4). […] For plasma samples, the dilution integrity was evaluated for a 10- and 20-fold dilution of QC samples at 40,000 ng/mL, which was two times higher than ULOQ, with blank matrix. The accuracy for dilution integrity was 105.56% and 102.21%, while precision was 1.03% and 2.39% for tenfold and 20-fold dilution, respectively (n = 3, each).\nSupplementary Table 3. Stability (%) of 175Lu-DOTA-PSMA-GUL in the rat plasma, urine, feces,\nMatrix Concentration Short-term Long-term Freeze-thaw Autosampler\n(ng/mL) (n=4) (n=4) (n=4) (n=4)", "key": {"[1]": {"conditions": "rat small intestine, 4,000 ng/mL"}}}
{"smiles": "O=C([O-])CN1CCN(CC(=O)[O-])CCN(CC(=O)[O-])C(Cc2ccc(NC(=S)NCCCC[C@H](NC(=O)N[C@@H](CCC(=O)O)C(=O)O)C(=O)O)cc2)CN(CC(=O)[O-])CC1.[Lu+3]", "note": "(stereo partly drawn) [^175Lu-DOTA-PSMA-GUL, Lutetium labeled-1,4,7,10-tetraazacyclododecane-1,4,7,10-tetraacetic acid (DOTA)-PSMA-GUL]", "values": [{"measurement": "Stability Autosampler", "setting": "rat muscle, 4,000 ng/mL", "result": "98.62 ± 2.06", "unit": "%"}, {"measurement": "Stability Long-term", "setting": "rat muscle, 4,000 ng/mL", "result": "99.74 ± 4.41", "unit": "%"}, {"measurement": "Stability Short-term", "setting": "rat muscle, 4,000 ng/mL", "result": "99.13 ± 2.50", "unit": "%"}, {"measurement": "Stability Freeze-thaw", "setting": "rat plasma, 80 ng/mL", "result": "102.92 ± 2.77", "unit": "%"}, {"measurement": "Stability Autosampler", "setting": "rat plasma, 80 ng/mL", "result": "97.69 ± 3.09", "unit": "%"}, {"measurement": "Stability Long-term", "setting": "rat plasma, 80 ng/mL", "result": "100.61 ± 2.11", "unit": "%"}, {"measurement": "Stability Short-term", "setting": "rat plasma, 80 ng/mL", "result": "106.18 ± 0.41", "unit": "%"}, {"measurement": "Stability Freeze-thaw", "setting": "rat plasma, 16,000 ng/mL", "result": "98.68 ± 1.21", "unit": "%"}, {"measurement": "Stability Autosampler", "setting": "rat plasma, 16,000 ng/mL", "result": "102.82 ± 1.73", "unit": "%"}, {"measurement": "Stability Long-term", "setting": "rat plasma, 16,000 ng/mL", "result": "99.20 ± 0.51", "unit": "%"}, {"measurement": "Stability Short-term", "setting": "rat plasma, 16,000 ng/mL", "result": "101.14 ± 2.43", "unit": "%"}, {"measurement": "Stability Freeze-thaw", "setting": "rat prostate, 400 ng/mL", "result": "95.17 ± 3.44", "unit": "%"}, {"measurement": "Stability Autosampler", "setting": "rat prostate, 400 ng/mL", "result": "97.82 ± 2.46", "unit": "%"}, {"measurement": "Stability Long-term", "setting": "rat prostate, 400 ng/mL", "result": "95.50 ± 3.57", "unit": "%"}, {"measurement": "Stability Short-term", "setting": "rat prostate, 400 ng/mL", "result": "95.76 ± 1.48", "unit": "%"}, {"measurement": "Stability Freeze-thaw", "setting": "rat prostate, 4,000 ng/mL", "result": "99.85 ± 2.74", "unit": "%"}, {"measurement": "Stability Autosampler", "setting": "rat prostate, 4,000 ng/mL", "result": "96.30 ± 0.83", "unit": "%"}, {"measurement": "Stability Long-term", "setting": "rat prostate, 4,000 ng/mL", "result": "97.12 ± 3.90", "unit": "%"}, {"measurement": "Stability Short-term", "setting": "rat prostate, 4,000 ng/mL", "result": "99.30 ± 3.24", "unit": "%"}, {"measurement": "Stability Freeze-thaw", "setting": "rat small intestine, 400 ng/mL", "result": "99.15 ± 6.00", "unit": "%"}, {"measurement": "Stability Autosampler", "setting": "rat small intestine, 400 ng/mL", "result": "98.68 ± 2.52", "unit": "%"}, {"measurement": "Stability Long-term", "setting": "rat small intestine, 400 ng/mL", "result": "98.80 ± 2.76", "unit": "%"}, {"measurement": "Stability Short-term", "setting": "rat small intestine, 400 ng/mL", "result": "99.17 ± 2.35", "unit": "%"}, {"measurement": "Stability Freeze-thaw", "setting": "[1]", "result": "100.54 ± 2.33", "unit": "%"}, {"measurement": "Stability Autosampler", "setting": "[1]", "result": "104.13 ± 2.24", "unit": "%"}, {"measurement": "Stability Long-term", "setting": "[1]", "result": "103.65 ± 4.10", "unit": "%"}, {"measurement": "Stability Short-term", "setting": "[1]", "result": "102.12 ± 2.51", "unit": "%"}, {"measurement": "Stability Freeze-thaw", "setting": "rat spleen, 400 ng/mL", "result": "98.46 ± 3.74", "unit": "%"}, {"measurement": "Stability Autosampler", "setting": "rat spleen, 400 ng/mL", "result": "102.59 ± 1.80", "unit": "%"}, {"measurement": "Stability Long-term", "setting": "rat spleen, 400 ng/mL", "result": "97.10 ± 3.45", "unit": "%"}, {"measurement": "Stability Short-term", "setting": "rat spleen, 400 ng/mL", "result": "101.61 ± 2.41", "unit": "%"}, {"measurement": "Stability Freeze-thaw", "setting": "rat spleen, 4,000 ng/mL", "result": "104.53 ± 2.39", "unit": "%"}, {"measurement": "Stability Autosampler", "setting": "rat spleen, 4,000 ng/mL", "result": "102.93 ± 2.02", "unit": "%"}, {"measurement": "Stability Long-term", "setting": "rat spleen, 4,000 ng/mL", "result": "106.40 ± 3.85", "unit": "%"}, {"measurement": "Stability Short-term", "setting": "rat spleen, 4,000 ng/mL", "result": "104.24 ± 4.36", "unit": "%"}, {"measurement": "Stability Freeze-thaw", "setting": "rat stomach, 400 ng/mL", "result": "97.59 ± 1.68", "unit": "%"}, {"measurement": "Stability Autosampler", "setting": "rat stomach, 400 ng/mL", "result": "100.00 ± 4.55", "unit": "%"}, {"measurement": "Stability Long-term", "setting": "rat stomach, 400 ng/mL", "result": "99.72 ± 2.41", "unit": "%"}, {"measurement": "Stability Short-term", "setting": "rat stomach, 400 ng/mL", "result": "98.96 ± 4.28", "unit": "%"}, {"measurement": "Stability Freeze-thaw", "setting": "rat stomach, 4,000 ng/mL", "result": "92.47 ± 1.38", "unit": "%"}, {"measurement": "Stability Autosampler", "setting": "rat stomach, 4,000 ng/mL", "result": "93.61 ± 2.79", "unit": "%"}, {"measurement": "Stability Long-term", "setting": "rat stomach, 4,000 ng/mL", "result": "94.79 ± 3.41", "unit": "%"}, {"measurement": "Stability Short-term", "setting": "rat stomach, 4,000 ng/mL", "result": "96.98 ± 3.91", "unit": "%"}, {"measurement": "Stability Freeze-thaw", "setting": "rat testis, 400 ng/mL", "result": "107.18 ± 0.85", "unit": "%"}, {"measurement": "Stability Autosampler", "setting": "rat testis, 400 ng/mL", "result": "101.68 ± 6.54", "unit": "%"}, {"measurement": "Stability Long-term", "setting": "rat testis, 400 ng/mL", "result": "103.74 ± 3.80", "unit": "%"}, {"measurement": "Stability Short-term", "setting": "rat testis, 400 ng/mL", "result": "100.51 ± 3.98", "unit": "%"}, {"measurement": "Stability Freeze-thaw", "setting": "rat testis, 4,000 ng/mL", "result": "99.52 ± 0.96", "unit": "%"}, {"measurement": "Stability Autosampler", "setting": "rat testis, 4,000 ng/mL", "result": "97.56 ± 4.96", "unit": "%"}, {"measurement": "Stability Long-term", "setting": "rat testis, 4,000 ng/mL", "result": "94.96 ± 4.89", "unit": "%"}, {"measurement": "Stability Short-term", "setting": "rat testis, 4,000 ng/mL", "result": "101.72 ± 1.48", "unit": "%"}, {"measurement": "Stability Freeze-thaw", "setting": "rat urine, 400 ng/mL", "result": "105.67 ± 4.65", "unit": "%"}, {"measurement": "Stability Autosampler", "setting": "rat urine, 400 ng/mL", "result": "94.03 ± 2.84", "unit": "%"}, {"measurement": "Stability Long-term", "setting": "rat urine, 400 ng/mL", "result": "98.36 ± 1.67", "unit": "%"}, {"measurement": "Stability Short-term", "setting": "rat urine, 400 ng/mL", "result": "91.67 ± 2.58", "unit": "%"}, {"measurement": "Stability Freeze-thaw", "setting": "rat urine, 16,000 ng/mL", "result": "92.41 ± 1.12", "unit": "%"}, {"measurement": "Stability Autosampler", "setting": "rat urine, 16,000 ng/mL", "result": "104.69 ± 2.03", "unit": "%"}, {"measurement": "Stability Long-term", "setting": "rat urine, 16,000 ng/mL", "result": "100.28 ± 1.39", "unit": "%"}, {"measurement": "Stability Short-term", "setting": "rat urine, 16,000 ng/mL", "result": "106.46 ± 1.17", "unit": "%"}, {"measurement": "stability in each biological matrix", "setting": "short-term, long-term, freeze–thaw and autosampler storage conditions", "result": "stable"}]}
